Laboratory results as given in patent publication US8435980B2 (AbbVie Inc., priority 2009, dated 2013).

The molecules below were run against T1, Cdc7 (BEV coexpressed huCDC7/DBF4) (Homo sapiens, UniProt O00311) (assay: Cdc7 enzyme inhibition assay ([33P]ATP, biotinylated peptide substrate, FlashPlate)). Conditions: Table 3; enzyme inhibition data (Ki).
T1 construct: made in house; host or cells: BEV (baculovirus expression vector) co-expression; insect cells are implied but no cell line is named
T1 sequence (O00311 whole entry): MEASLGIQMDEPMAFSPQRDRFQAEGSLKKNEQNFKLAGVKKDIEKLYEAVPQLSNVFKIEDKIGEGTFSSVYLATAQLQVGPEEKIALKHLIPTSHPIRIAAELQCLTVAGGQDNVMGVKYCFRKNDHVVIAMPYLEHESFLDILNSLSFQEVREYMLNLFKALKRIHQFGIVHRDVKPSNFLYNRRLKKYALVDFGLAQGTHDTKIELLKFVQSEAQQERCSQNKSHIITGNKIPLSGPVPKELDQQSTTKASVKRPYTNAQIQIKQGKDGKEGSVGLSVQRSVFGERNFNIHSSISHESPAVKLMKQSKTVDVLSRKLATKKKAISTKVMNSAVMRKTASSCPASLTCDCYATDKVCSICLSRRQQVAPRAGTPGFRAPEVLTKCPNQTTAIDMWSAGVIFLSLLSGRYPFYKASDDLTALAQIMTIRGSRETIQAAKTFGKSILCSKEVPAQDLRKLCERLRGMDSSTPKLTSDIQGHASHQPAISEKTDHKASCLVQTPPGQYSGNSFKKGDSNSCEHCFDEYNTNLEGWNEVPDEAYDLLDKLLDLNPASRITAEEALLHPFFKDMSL
T1 sequence (Q9UBU7 whole entry partner): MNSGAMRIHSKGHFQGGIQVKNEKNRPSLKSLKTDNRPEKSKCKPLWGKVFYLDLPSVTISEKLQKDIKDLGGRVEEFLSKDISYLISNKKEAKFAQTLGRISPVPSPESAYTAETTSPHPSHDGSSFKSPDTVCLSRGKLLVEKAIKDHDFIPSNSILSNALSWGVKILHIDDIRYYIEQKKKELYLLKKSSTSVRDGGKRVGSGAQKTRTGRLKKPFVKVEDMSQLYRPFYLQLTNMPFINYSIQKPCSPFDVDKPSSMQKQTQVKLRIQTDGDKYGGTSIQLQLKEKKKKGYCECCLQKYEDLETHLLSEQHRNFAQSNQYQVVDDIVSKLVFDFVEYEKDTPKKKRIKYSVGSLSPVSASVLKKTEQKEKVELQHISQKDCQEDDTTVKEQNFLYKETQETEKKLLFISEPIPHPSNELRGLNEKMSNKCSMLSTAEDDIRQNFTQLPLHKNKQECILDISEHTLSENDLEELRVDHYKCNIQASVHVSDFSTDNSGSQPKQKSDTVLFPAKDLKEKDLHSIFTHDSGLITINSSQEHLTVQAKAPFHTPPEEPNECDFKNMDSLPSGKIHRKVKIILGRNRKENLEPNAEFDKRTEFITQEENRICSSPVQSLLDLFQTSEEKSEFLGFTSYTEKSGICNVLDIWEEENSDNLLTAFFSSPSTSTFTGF
Type: biochemical
Method: Cdc7 (BEV coexpressed huCDC7/DBF4) is prepared internally. Cdc7 assays are conducted as follows with final concentrations as listed. […] Reactions are quenched after 1 hr by the addition of 90 μL stop buffer (50 mM EDTA, 2M NaCl). […] (Ki) for exemplary compounds.

With `CCOCC(=O)NC1CCCC(Nc2cc(-c3c[nH]c4ncccc34)cc(Cl)n2)C1` (stereo not shown) [Example 292, N-(3-{[6-chloro-4-(1H-pyrrolo[2,3-b]pyridin-3-yl)pyridin-2-yl]amino}cyclohexyl)-2-ethoxyacetamide] as the molecule, how does the Ki read?
The Ki was under 10 nM.

For `O=C(COc1ccccc1)NC1CCCC(Nc2cc(-c3c[nH]c4ncccc34)cc(Cl)n2)C1` (stereo not shown) [Example 293, N-(3-{[6-chloro-4-(1H-pyrrolo[2,3-b]pyridin-3-yl)pyridin-2-yl]amino}cyclohexyl)-2-phenoxyacetamide], which Ki is on record?
The Ki was under 10 nM.

For `O=C(NC1CCCC(Nc2cc(-c3c[nH]c4ncccc34)cc(Cl)n2)C1)c1cnccn1` (stereo not shown) [Example 294, N-(3-{[6-chloro-4-(1H-pyrrolo[2,3-b]pyridin-3-yl)pyridin-2-yl]amino}cyclohexyl)pyrazine-2-carboxamide], which Ki is on record?
Its Ki is under 10 nM.

With `O=C(NC1CCCC(Nc2cc(-c3c[nH]c4ncccc34)cc(Cl)n2)C1)C1CCN1` (stereo not shown) [Example 295, N-(3-{[6-chloro-4-(1H-pyrrolo[2,3-b]pyridin-3-yl)pyridin-2-yl]amino}cyclohexyl)azetidine-2-carboxamide] as the molecule, how does the Ki read?
Its Ki is under 10 nM.

Which Ki does the source give for `CC(C)(C)OC(=O)N1CCC1C(=O)NC1CCCC(Nc2cc(-c3c[nH]c4ncccc34)cc(Cl)n2)C1` (stereo not shown) [Example 296, tert-butyl 2-[(3-{[6-chloro-4-(1H-pyrrolo[2,3-b]pyridin-3-yl)pyridin-2-yl]amino}cyclohexyl)carbamoyl]azetidine-1-carboxylate] here?
The Ki was under 10 nM.

For `C=CCNC(=O)NC1CCC(Nc2cc(-c3c[nH]c4ncccc34)cc(Cl)n2)CC1` (stereo not shown) [Example 297, 1-(4-{[6-chloro-4-(1H-pyrrolo[2,3-b]pyridin-3-yl)pyridin-2-yl]amino}cyclohexyl)-3-prop-2-en-1-ylurea], which Ki is on record?
The Ki was under 10 nM.

Which Ki does the source give for `Cn1cnc(S(=O)(=O)NCC(C)(C)CNc2cc(-c3c[nH]c4ncccc34)cc(Cl)n2)c1` [Example 298, N-(3-{[6-chloro-4-(1H-pyrrolo[2,3-b]pyridin-3-yl)pyridin-2-yl]amino}-2,2-dimethylpropyl)-1-methyl-1H-imidazole-4-sulfonamide] here?
The Ki was under 10 nM.

Which Ki does the source give for `O=S(=O)(NC1CCCC(Nc2cc(-c3c[nH]c4ncccc34)cc(Cl)n2)C1)c1ccco1` (stereo not shown) [Example 299, N-(3-{[6-chloro-4-(1H-pyrrolo[2,3-b]pyridin-3-yl)pyridin-2-yl]amino}cyclohexyl)furan-2-sulfonamide] here?
Its Ki is under 10 nM.

`O=S(=O)(NC1CCCC(Nc2cc(-c3c[nH]c4ncccc34)cc(Cl)n2)C1)c1cccnc1` (stereo not shown) [Example 300, N-(3-{[6-chloro-4-(1H-pyrrolo[2,3-b]pyridin-3-yl)pyridin-2-yl]amino}cyclohexyl)pyridine-3-sulfonamide] was tested. Which Ki did it give?
The Ki was under 10 nM.

How did the Ki turn out when `CC(C)NC(=O)NC1CCCC(Nc2cc(-c3c[nH]c4ncccc34)cc(Cl)n2)C1` (stereo not shown) [Example 301, 1-(3-{[6-chloro-4-(1H-pyrrolo[2,3-b]pyridin-3-yl)pyridin-2-yl]amino}cyclohexyl)-3-propan-2-ylurea] was run?
Its Ki is under 10 nM.

With `CCOC(=O)CNC(=O)NC1CCCC(Nc2cc(-c3c[nH]c4ncccc34)cc(Cl)n2)C1` (stereo not shown) [Example 302, ethyl N-[(3-{[6-chloro-4-(1H-pyrrolo[2,3-b]pyridin-3-yl)pyridin-2-yl]amino}cyclohexyl)carbamoyl]glycinate] as the molecule, how does the Ki read?
Its Ki is under 10 nM.

Which Ki does the source give for `O=C(NCC1CCCCC1)NC1CCCC(Nc2cc(-c3c[nH]c4ncccc34)cc(Cl)n2)C1` (stereo not shown) [Example 303, 1-(3-{[6-chloro-4-(1H-pyrrolo[2,3-b]pyridin-3-yl)pyridin-2-yl]amino}cyclohexyl)-3-(cyclohexylmethyl)urea] here?
The Ki was 10 to 100 nM.

With `CC(=O)c1ccc(S(=O)(=O)NCC(C)(C)CNc2cc(-c3c[nH]c4ncccc34)cc(Cl)n2)cc1` [Example 304, 4-acetyl-N-(3-{[6-chloro-4-(1H-pyrrolo[2,3-b]pyridin-3-yl)pyridin-2-yl]amino}-2,2-dimethylpropyl)benzenesulfonamide] as the molecule, how does the Ki read?
Its Ki is 10 to 100 nM.

For `Cc1noc(C)c1S(=O)(=O)NCC(C)(C)CNc1cc(-c2c[nH]c3ncccc23)cc(Cl)n1` [Example 305, N-(3-{[6-chloro-4-(1H-pyrrolo[2,3-b]pyridin-3-yl)pyridin-2-yl]amino}-2,2-dimethylpropyl)-3,5-dimethyl-1,2-oxazole-4-sulfonamide], which Ki is on record?
Its Ki is 10 to 100 nM.

For `CC(C)(CNc1cc(-c2c[nH]c3ncccc23)cc(Cl)n1)CNS(=O)(=O)c1cccs1` [Example 306, N-(3-{[6-chloro-4-(1H-pyrrolo[2,3-b]pyridin-3-yl)pyridin-2-yl]amino}-2,2-dimethylpropyl)thiophene-2-sulfonamide], which Ki is on record?
The Ki was 10 to 100 nM.

Which Ki does the source give for `Cc1noc(C)c1S(=O)(=O)NC1CCCC(Nc2cc(-c3c[nH]c4ncccc34)cc(Cl)n2)C1` (stereo not shown) [Example 307, N-(3-{[6-chloro-4-(1H-pyrrolo[2,3-b]pyridin-3-yl)pyridin-2-yl]amino}cyclohexyl)-3,5-dimethyl-1,2-oxazole-4-sulfonamide] here?
The Ki was under 10 nM.

`CCCNC(=O)NC1CCCC(Nc2cc(-c3c[nH]c4ncccc34)cc(Cl)n2)C1` (stereo not shown) [Example 308, 1-(3-{[6-chloro-4-(1H-pyrrolo[2,3-b]pyridin-3-yl)pyridin-2-yl]amino}cyclohexyl)-3-propylurea] was tested. Which Ki did it give?
The Ki was under 10 nM.

With `CCCS(=O)(=O)NCC(C)(C)CNc1cc(-c2c[nH]c3ncccc23)cc(Cl)n1` [Example 309, N-(3-{[6-chloro-4-(1H-pyrrolo[2,3-b]pyridin-3-yl)pyridin-2-yl]amino}-2,2-dimethylpropyl)propane-1-sulfonamide] as the molecule, how does the Ki read?
Its Ki is under 10 nM.

Which Ki does the source give for `CC(=O)Nc1cc(-c2c[nH]c3ncccc23)cc(Cl)n1` [Example 310, N-[6-chloro-4-(1H-pyrrolo[2,3-b]pyridin-3-yl)pyridin-2-yl]acetamide] here?
Its Ki is under 10 nM.

Which Ki does the source give for `CC(C)S(=O)(=O)N[C@H]1CC[C@H](Nc2cc(-c3c[nH]c4ncccc34)cc(Cl)n2)CC1` [Example 311, N-(trans-4-{[6-chloro-4-(1H-pyrrolo[2,3-b]pyridin-3-yl)pyridin-2-yl]amino}cyclohexyl)propane-2-sulfonamide] here?
The Ki was under 10 nM.

With `CCS(=O)(=O)N[C@H]1CC[C@H](Nc2cc(-c3c[nH]c4ncccc34)cc(Cl)n2)CC1` [Example 312, N-(trans-4-{[6-chloro-4-(1H-pyrrolo[2,3-b]pyridin-3-yl)pyridin-2-yl]amino}cyclohexyl)ethanesulfonamide] as the molecule, how does the Ki read?
The Ki was under 10 nM.

How did the Ki turn out when `CCCCS(=O)(=O)NCCNc1cc(-c2c[nH]c3ncccc23)cc(Cl)n1` [Example 313, N-(2-{[6-chloro-4-(1H-pyrrolo[2,3-b]pyridin-3-yl)pyridin-2-yl]amino}ethyl)butane-1-sulfonamide] was run?
The Ki was under 10 nM.

Which Ki does the source give for `O=S(=O)(NCCNc1cc(-c2c[nH]c3ncccc23)cc(Cl)n1)c1cccs1` [Example 314, N-(2-{[6-chloro-4-(1H-pyrrolo[2,3-b]pyridin-3-yl)pyridin-2-yl]amino}ethyl)thiophene-2-sulfonamide] here?
The Ki was under 10 nM.

Which Ki does the source give for `CN1CCCC(Nc2cc(-c3c[nH]c4ncccc34)cc(Cl)n2)C1` (stereo not shown) [Example 315, 6-chloro-N-(1-methylpiperidin-3-yl)-4-(1H-pyrrolo[2,3-b]pyridin-3-yl)pyridin-2-amine] here?
The Ki was under 10 nM.

With `O=C(C1CC1)N1CCCC(CNc2cc(-c3c[nH]c4ncccc34)cc(Cl)n2)C1` (stereo not shown) [Example 316, [3-({[6-chloro-4-(1H-pynolo[2,3-b]pyridin-3-yl)pyridin-2-yl]amino}methyl)piperidin-1-yl](cyclopropyl)methanone] as the molecule, how does the Ki read?
The Ki was under 10 nM.
